Measured values as given in patent US20190106721A1, “Method for the fermentative production of L-amino acids” (priority 2017, published 2019).
Values after ≈ are worked out from the molar mass of the structure shown.

Assays:
Assay in all cases: Minimal inhibitory concentration test (MIC-Test) of lincomycin, serial dilution in liquid culture
[1] = tested on: ATCC13032/pVWEx1_lmrB^ATCC14067; format: cell-based; conditions: Corynebacterium glutamicum, 20 h
Method: (§1) For this purpose a first well of a microliter plate was filled with 360 μl of BHI medium supplemented with 0.3 mM IPTG and 250 μg/ml lincomycin-hydrochloride. A volume of 180 μl was removed and placed into a second well previously filled with 180 μl BHI medium supplemented with 0.3 mM IPTG. Thus a second well containing BHI medium supplemented with 0.3 mM IPTG and 125 μg/ml lincomycin-hydrochloride was prepared. From said second well 180 ∞l were removed and placed into a third well previously filled with 180 μl BHI medium supplemented with 0.3 mM IPTG. These dilution steps were repeated several times to cover the concentration range mentioned above. Thus wells containing 180 μl of the respective test medium were obtained. A control medium without lincomycin-hydrochloride was included in the test procedure.
(§2) A preculture of the strain to be tested was made in BHI medium (as described under cultivation) supplemented with 250 μg/ml kanamycin in case of plasmid containing strains). The preculture was centrifuged and the cell pellet resuspended in 0.9% (w/v) NaCl solution to give an OD660 of 1.0. A volume of 20 μl of the suspension was used to inoculate the test medium contained in the wells. The micro titer plate was incubated at 300 rpm and 33° C. in an Infors HT Multitron standard incubator shaker from Infors GmbH (Bottmingen, Switzerland). After 20 h the optical densities were measured. The test medium having the lowest concentration of lincomycin-hydrochloride preventing growth of the culture is given as MIC.
(§3) The MIC's of lincomycin for strains ATCC13032/pVWEx1; ATCC13032/pVWEx1_lmrB^ATCC14067; DM1933_ΔlmrB::EcoRV/pVWEx1 and DM1933_ΔlmrB::EcoRV/pVWEx1_lmrB^ATCC14067 constructed in example 8 were determined as described in materials and methods.

[2] = tested on: DM1933_ΔlmrB::EcoRV/pVWEx1_lmrB^ATCC14067; format: cell-based; conditions: Corynebacterium glutamicum, ATCC14067, 20 h
Method: as §1, §2, §3

ATCC13032/pVWEx1 = format: cell-based; conditions: Corynebacterium glutamicum; strain ATCC13032/pVWEx1; as lincomycin-hydrochloride; BHI medium with 0.3 mM IPTG, 20 h, 33° C.
Method: as §1, §2, §3

[3] = tested on: DM1933_ΔlmrB::EcoRV/pVWEx1; format: cell-based, Corynebacterium glutamicum; conditions: 20 h
Method: as §1, with “A control medium without lincomycin-hydrochloride was included in the test procedure.” left out
(§4) A preculture of the strain to be tested was made in BHI medium (as described under cultivation) supplemented with 250 μg/ml kanamycin in case of plasmid containing strains). […] After 20 h the optical densities were measured. […]
as §3
(§5) The MIC's of lincomycin for strains DM1933_ΔlmrB::EcoRV/pVWEx1 and DM1933_ΔlmrB::EcoRV/pVWEx1_lmrB^DM1547 constructed in examples 8 and 11 were determined as described in materials and methods.

[4] = tested on: DM1933_ΔlmrB::EcoRV/pVWEx1_lmrB^DM1547; format: cell-based; conditions: Corynebacterium glutamicum, 20 h
Method: as §1
as §4, with “strains). The preculture was centrifuged and the cell pellet resuspended in 0.9% (w/v) NaCl solution to give an OD660 of 1.0.” for “strains).”
as §5

Structure (SMILES): CCC[C@@H]1C[C@@H](C(=O)N[C@@H]([C@H]2O[C@H](SC)[C@H](O)[C@@H](O)[C@H]2O)[C@@H](C)O)N(C)C1 [lincomycin, Lincomycin]
- MIC [1]: 125 µg/mL (≈ 307 µM)
- MIC [2]: 62.5 µg/mL (≈ 154 µM)
- MIC (ATCC13032/pVWEx1): 15.6 µg/mL (≈ 38.4 µM)
- MIC ([3]; Corynebacterium glutamicum): 7.8 µg/mL (≈ 19.2 µM)
- MIC ([3]; strain DM1933_DlmrB/pVWEx1 (Table 25), as lincomycin-hydrochloride, BHI medium with 0.3 mM IPTG, 33° C.): 7.8 µg/mL (≈ 19.2 µM)
- MIC [4]: 62.5 µg/mL (≈ 154 µM)
